Experimental data from patent US20050209157A1, “Short bioactive peptides and methods for their use” (priority 2001, published 2005).
Read-outs that look alike come from different tables or passages of the source. No end group written: not given here.

Tests used:
fungal = experiment: Presently preferred antifungal peptides, selected from the MIC/MBC data; assay type: cell-based; settings: X = preferred
Text: The peptide's “length” is the number of amino acid residues in the sequence.

[1] = system: Escherichia coli ATCC 25922; experiment: Antimicrobial assay I, modified protocol (tryptic soy broth), MBC; settings: minimum bactericidal concentration, Table 4
Procedure: The preparation of all media, stock solutions, and dilutions took place in a laminar flow hood to prevent contamination. Bacterial cells were freshly grown on antibiotic medium 2 agar slants (pH 7.0 at 25° C.). Bacteria were suspended and diluted in antibiotic medium 3 to about 10^4 cfu/ml and used as the inoculum. Sample solutions (100 μl/well) were added to plates according to the plate layout. Inoculum (100 μl/well) was added to achieve a final concentration of 5×10^3 cfu/ml. Negative controls received 100 μl saline and 100 μl growth medium. Positive controls received 100 μl saline and 100 μl inoculum. Bacterial plates were incubated at 37° C. for 24 hours.
However, the data for Table 4 were obtained with a modified protocol wherein the medium was tryptic soy broth, inocolum strength was approximately 10^4 CFU per ml, and values determined were minimum bactericidal concentrations (MBC) or minimum fungicidal concentrations (MFC).
MBC or MFC values are in μg/mL. E. coli is Escherichia coli ATCC accession number 25922; P. aerug is Pseudomonas aeruginosa ATCC accession number 27853, S. aur. is Stapholococcus aureus ATCC accession number 25923; Candida is Candida albicans ATCC accession number 10231.

[2] = system: Pseudomonas aeruginosa ATCC 27853; experiment: as above; settings: minimum bactericidal concentration, Table 4
[3] = system: Stapholococcus aureus ATCC 25923; experiment: as above; settings: minimum bactericidal concentration, Table 4
[4] = system: Candida albicans ATCC 10231; experiment: Antimicrobial assay I, modified protocol (tryptic soy broth), MFC; settings: minimum fungicidal concentration, Table 4
[5] = system: Pseudomonas aeruginosa ATCC 9027; experiment: Antimicrobial assay I, MIC by OD measurement; assay type: cell-based; settings: 37° C. for 24 hours, absorbance 620 nm
[6] = system: Staphylococcus aureus ATCC 6538; experiment: Antimicrobial assay I, MIC by OD measurement; assay type: cell-based; settings: 37° C. for 24 hours, absorbance 620 nm
[7] = system: yeast (Saccharomyces cerevisiae); experiment: Antimicrobial assay I, yeast assay in RPMI 1640; assay type: cell-based; settings: RPMI 1640 media
S. aureus (MRSA) = assay type: cell-based, Staphylococcus aureus; settings: mean of three; 16 to 20 hours at 35° C.
S. epidermidis C621 = assay type: cell-based, Staphylococcus epidermidis; settings: mean of three; 16 to 20 hours at 35° C.
S. pyogenes M76 = experiment: Antimicrobial assays II, NCCLS broth microdilution MIC; assay type: cell-based, Streptococcus pyogenes; settings: mean of three; 16 to 20 hours at 35° C.
S. pyogenes ATCC19615 = experiment: as above; assay type: cell-based, Streptococcus pyogenes; settings: mean of three, in µg/mL
S. pneumoniae C718 = experiment: as above; assay type: cell-based, Streptococcus pneumoniae; settings: mean of three
S. pneumoniae C719 = experiment: as above; assay type: cell-based, Streptococcus pneumoniae; settings: mean of three, in µg/mL
P. acne ATCC 6919 = experiment: as above; assay type: cell-based, Propionibacterium acnes; settings: mean of three, in µg/mL
BMKC = experiment: Anti-cancer assay, MTT, LD50; assay type: cell-based; settings: BMKC cloned melanoma line, 24 hours with peptide
Text: (§1) Numbers are LD50 values (μg/mL).

H1299 = experiment: Anti-cancer assay, MTT, LD50; assay type: cell-based; settings: 24 hours with peptide, lung large cell carcinoma
Text: as §1

HeLaS3 = experiment: Anti-cancer assay, MTT, LD50; assay type: cell-based; settings: 24 hours with peptide, cervical carcinoma
Text: as §1

MCF7 = experiment: Anti-cancer assay, MTT, LD50; assay type: cell-based; settings: MCF7 breast adenocarcinoma line, MTT, 24 hours with peptide
Text: as §1

PC3 = experiment: Anti-cancer assay, MTT, LD50; assay type: cell-based; settings: 24 hours with peptide, prostate adenocarcinoma
Text: as §1

SW480 = experiment: Anti-cancer assay, MTT, LD50; assay type: cell-based; settings: SW480 colon adenocarcinoma line, 24 hours with peptide
Text: as §1

[8] = system: human red blood cells (RBC); experiment: in vitro; assay type: cell-based; settings: hemolytic assay, concentration at 50% hemolysis, 1 hour at 37° C.
P. aeruginosa H374 = assay type: cell-based, Pseudomonas aeruginosa; settings: for FIC Index: 0.5 or less = synergy
How it was run: (§2)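 FIC index, computed as 0.25 plus the ratio of combination to single-agent antibiotic MIC, defines synergy when 0.5 or below. Peptide fixed at one quarter MIC while chloramphenicol or nalidixic acid was serially diluted two-fold; antibiotic-alone MICs served as baselines.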

P. aeruginosa H774 = assay type: cell-based, Pseudomonas aeruginosa; settings: P. aeruginosa H744; nalidixic acid + peptide at ¼ MIC; 0.5 or less = synergy
How it was run: as §2

P. aeruginosa = assay type: cell-based, Pseudomonas aeruginosa; settings: P. aeruginosa H744; MIC of nalidixic acid with peptide at ¼ MIC
How it was run: as §2

WI38 = settings: MTT, 24 hours with peptide

Molecule: CC(C)C[C@H](NC(=O)[C@H](C)NC(=O)[C@H](CCCCN)NC(=O)[C@H](CC(C)C)NC(=O)[C@H](C)NC(=O)[C@H](CC(C)C)NC(=O)[C@H](C)NC(=O)[C@H](CC(C)C)NC(=O)[C@H](CCCCN)NC(=O)[C@H](C)NC(=O)[C@H](CC(C)C)NC(=O)[C@H](CCCCN)NC(=O)[C@H](CCCCN)NC(=O)[C@H](C)NC(=O)[C@H](CC(C)C)NC(=O)[C@H](CCCCN)NC(=O)[C@H](CCCCN)NC(=O)[C@H](CC(C)C)NC(=O)[C@H](CCCCN)NC(=O)[C@H](CCCCN)NC(=O)[C@H](C)NC(=O)[C@H](CC(C)C)NC(=O)[C@H](CCCCN)NC(=O)[C@H](CCCCN)NC(=O)[C@H](C)NC(=O)[C@@H](N)Cc1ccccc1)C(=O)N[C@@H](C)C(=O)N[C@@H](CC(C)C)C(=O)N[C@@H](CCCCN)C(=O)N[C@@H](C)C(=O)O [compound 100]
- Anti-fungal (preferred peptide) (fungal): X (Preferred antifungal peptides can be selected as having MIC or MBC values of less than or equal to about 25 μg/ml)

Molecule: FAKKLAKKLAKAL-NH2 [compound 74]
- Anti-fungal (preferred peptide) (fungal): X (Preferred antifungal peptides can be selected as having MIC or MBC values of less than or equal to about 25 μg/ml)
- MBC E. coli A.25922 [1]: >55 µg/mL
- MBC P. aerug A.27853 [2]: 50 µg/mL
- MBC S. aur A.25923 [3]: >55 µg/mL
- MFC Candida A.10231 [4]: >55 µg/mL

Molecule: FAKLAKKLL-NH2 [P60]
- paerug9027 (MIC) [5]: 100 µg/mL
- staph6538 (MIC) [6]: 200 µg/mL
- yeast (MIC or MFC) [7]: 200 µg/mL
- S. aureus (MRSA) MIC (S. aureus (MRSA)): 32 µg/mL
- S. epidermidis C621 MIC (S. epidermidis C621): 4 µg/mL
- S. pyogenes M76 MIC (S. pyogenes M76): 8 µg/mL
- S. pyogenes MIC (S. pyogenes ATCC19615): 8
- S. pneumoniae MIC (S. pneumoniae C718): 128 µg/mL
- S. pneumoniae MIC (S. pneumoniae C719): >128
- P. acne MIC (P. acne ATCC 6919): 4
- LD50 BMKC (BMKC): > (> indicates greater than 1000)
- H1299 LD50 (H1299): > (> indicates greater than 1000)
- HeLaS3 LD50 (HeLaS3): > (> indicates greater than 1000)
- LD50 MCF7 (MCF7): > (> indicates greater than 1000)
- PC3 LD50 (PC3): > (> indicates greater than 1000)
- LD50 SW480 (SW480): > (> indicates greater than 1000)
- LD50 [8]: > (> indicates greater than 1000)
- MIC Cm-comb. (P. aeruginosa H374; MIC of chloramphenicol with peptide at ¼ MIC): 4 µg/mL
- MIC Nal-comb. (P. aeruginosa H374; MIC of nalidixic acid with peptide at ¼ MIC): 1250 µg/mL
- FIC Index (P. aeruginosa H374; chloramphenicol + peptide at ¼ MIC): 0.5
- FIC Index (P. aeruginosa H374; nalidixic acid + peptide at ¼ MIC, FIC=0.25+MIC comb/MIC alone): 0.5
- FIC Index (P. aeruginosa H774): 1.25
- MIC Nal-comb. (P. aeruginosa): 624 µg/mL
- WI38 LD50 (WI38; normal fibroblast line): > (> indicates greater than 1000)
- LD50 WI38 (WI38; WI38 normal lung fibroblast line): > (> indicates greater than 1000)

Molecule: FAKLLAKALKKAL-NH2 [compound 102]
- Anti-fungal (preferred peptide) (fungal): X (Preferred antifungal peptides can be selected as having MIC or MBC values of less than or equal to about 25 μg/ml)
- MBC E. coli A.25922 [1]: 25 µg/mL
- MBC P. aerug A.27853 [2]: 30 µg/mL
- MBC S. aur A.25923 [3]: 25 µg/mL
- MFC Candida A.10231 [4]: 15 µg/mL

Molecule: FAKLLAKALKKFL-NH2 [compound 118]
- Anti-fungal (preferred peptide) (fungal): X (Preferred antifungal peptides can be selected as having MIC or MBC values of less than or equal to about 25 μg/ml)
- MBC E. coli A.25922 [1]: 8 µg/mL
- MBC P. aerug A.27853 [2]: 25 µg/mL

Molecule: FAKLLAKALKKL-NH2 [compound 103]
- Anti-fungal (preferred peptide) (fungal): X (Preferred antifungal peptides can be selected as having MIC or MBC values of less than or equal to about 25 μg/ml)
- MBC E. coli A.25922 [1]: 30 µg/mL
- MBC P. aerug A.27853 [2]: 30 µg/mL
- MBC S. aur A.25923 [3]: >50 µg/mL
- MFC Candida A.10231 [4]: 25 µg/mL

Molecule: FAKLLAKLAK-NH2 [compound 123]
- Anti-fungal (preferred peptide) (fungal): X (Preferred antifungal peptides can be selected as having MIC or MBC values of less than or equal to about 25 μg/ml)
- MBC E. coli A.25922 [1]: 40 µg/mL
- MBC P. aerug A.27853 [2]: INACT
- MBC S. aur A.25923 [3]: INACT
- MFC Candida A.10231 [4]: 25 µg/mL

Molecule: FAKLLALALKKAL-NH2 [compound 97]
- Anti-fungal (preferred peptide) (fungal): X (Preferred antifungal peptides can be selected as having MIC or MBC values of less than or equal to about 25 μg/ml)
- MBC E. coli A.25922 [1]: 25 µg/mL
- MBC P. aerug A.27853 [2]: >50 µg/mL
- MBC S. aur A.25923 [3]: 25 µg/mL
- MFC Candida A.10231 [4]: 25 µg/mL
